Patent publication US20080293686A1, “SEMI-SOLID SYSTEMS CONTAINING AZETIDINE DERIVATIVES” (AVENTIS PHARMA S.A., priority 2003, published 2008)
In brackets after ≈: the same amount, converted by molar mass.

Legend:
[1] = Solubility of compound (Ic) in lipids and other pharmaceutical cosolvents; assay type: physicochemical; details: in Soyabean oil
Text: The first step was to determine the solubility of compound (Ic) in an exhaustive series of lipids and other pharmaceutical cosolvents including vegetable oils, lipidic components, surfactants, hydrophilic components and phospholipids. The protocol of the solubility measurement is reported in the annex.

[2] = Colloidal stability and self-emulsifying properties after incubation with simulated gastrointestinal fluids and filtration; assay type: physicochemical; details: diluted 1:50, 2 hours at 37° C., theoretical concentration 200 μg/ml
Description: The following simulated media were selected for the present experiment: • Gastric medium USP, pH 1.2 • Fasted intestinal medium, pH 6.8 (ref. Dressman et al., Pharm. Res., 1998) • Fed intestinal medium, pH 5 (ref. Dressman et al., Pharm. Res., 1998)
All Compound (Ic) formulations (400 mg) were diluted 1:50 in the gastric, fasted intestinal or fed intestinal medium (20 ml), then incubated during 2 hours at 37° C. under mechanical stirring (300 rpm). The drug concentration was determined by HPLC before and after filtration (2 μm).
The aim of this second part of the study was to evaluate the colloidal stability and the self-emulsifying properties of the emulsion/microemulsion/micellar solution of the (Ic) formulation after incubation in the GI media. Thus, the sample was filtered onto 2 μm (able to retain oil droplets >2 μm, as well as drug crystals >2 μm) then dosed by HPLC. The filter size (2 μm) has been chosen after a screening with different filter sizes (0.45, 2 and 5 μm) tested on the aqueous solution of the drug. […] In summary, the filtered fraction was approximately 1% in the gastric medium, 2% in the fasted intestinal medium, 4.5-5.5% in the fed intestinal medium.

## CS(=O)(=O)C(=C1CN(C(c2ccc(Cl)cc2)c2ccc(Cl)cc2)C1)c1cc(F)cc(F)c1 [Compound (Ic)]
[1]
  solubility: 31.8 mg/mL (≈ 64.3 mM)
[2]; Fasted intestinal pH 6.8
  Compound (Ic) recovered after filtration (2 μm) after previous incubation with GI media: 4.2 µg/mL
[2]; Fed intestinal pH 5
  Compound (Ic) recovered after filtration (2 μm) after previous incubation with GI media: 8.8 µg/mL
[2]; Gastric medium
  Compound (Ic) recovered after filtration (2 μm) after previous incubation with GI media: 1.9 µg/mL
